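Step 1: Grow cells in 96-well plates. Step 2: Expose to compound for 48 hours at 5 concentrations. Step 3: Interpolate endpoints linearly; if unreached, use highest concentration. GI50 marks 50% less growth.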 Calls of active or inactive are those of the source. No stated cut-off is given here; in the data, active = GI50 up to about 1.1 µM and inactive = higher.
Assays:
Assay in all cases: growth of human tumour cells (NCI), 48 h
Hs-578T = tested on: Hs-578T
SNB-19 = tested on: SNB-19
NCI-H522 = tested on: NCI-H522
M14 = tested on: M14
SNB-75 = tested on: SNB-75
TK-10 = tested on: TK-10
SK-MEL-5 = tested on: SK-MEL-5
A549 = tested on: A549
RXF 393 = tested on: RXF 393
T47D = tested on: T47D
UACC-257 = tested on: UACC-257
HL-60 = tested on: HL-60
UO-31 = tested on: UO-31
SR = tested on: SR
MCF7 = tested on: MCF7
SK-OV-3 = tested on: SK-OV-3
NCI-H23 = tested on: NCI-H23
IGROV-1 = tested on: IGROV-1
OVCAR-3 = tested on: OVCAR-3
EKVX = tested on: EKVX
A498 = tested on: A498
DU-145 = tested on: DU-145
CAKI-1 = tested on: CAKI-1
SN12C = tested on: SN12C
MDA-MB-231 = tested on: MDA-MB-231
U-251 = tested on: U-251
SK-MEL-28 = tested on: SK-MEL-28
Malme-3M = tested on: Malme-3M
COLO 205 = tested on: COLO 205
HCT-116 = tested on: HCT-116
UACC-62 = tested on: UACC-62
NCI-H226 = tested on: NCI-H226
786-0 = tested on: 786-0
MDA-MB-435 = tested on: MDA-MB-435
NCI/ADR-RES = tested on: NCI/ADR-RES
OVCAR-4 = tested on: OVCAR-4
CCRF-CEM = tested on: CCRF-CEM
K562 = tested on: K562
SF-295 = tested on: SF-295
BT-549 = tested on: BT-549
NCI-H460 = tested on: NCI-H460
HCT-15 = tested on: HCT-15
HT-29 = tested on: HT-29
OVCAR-5 = tested on: OVCAR-5
MOLT-4 = tested on: MOLT-4
PC-3 = tested on: PC-3
HOP-62 = tested on: HOP-62
LOX IMVI = tested on: LOX IMVI
MDA-N = tested on: MDA-N
SW-620 = tested on: SW-620
OVCAR-8 = tested on: OVCAR-8
HCC 2998 = tested on: HCC 2998
ACHN = tested on: ACHN
HOP-92 = tested on: HOP-92
SF-268 = tested on: SF-268
KM12 = tested on: KM12
RPMI-8226 = tested on: RPMI-8226
SF-539 = tested on: SF-539
SK-MEL-2 = tested on: SK-MEL-2

Measured: GI50

C(/C=N/c1ccccc1)=C(/Nc1ccccc1)C12CC3CC(CC(C3)C1)C2
14.1 µM: HCT-15
inactive: Hs-578T 37.5 µM | SNB-19 17.2 µM | NCI-H522 10.4 µM | M14 12.7 µM | SNB-75 20.9 µM | TK-10 21.4 µM | SK-MEL-5 14.7 µM | A549 24.1 µM | RXF 393 17.1 µM | T47D 15.3 µM | UACC-257 27.9 µM | HL-60 12.1 µM | UO-31 15.1 µM | SR 11 µM | MCF7 20.5 µM | SK-OV-3 16.4 µM | NCI-H23 18.3 µM | IGROV-1 17.6 µM | OVCAR-3 6.85 µM | EKVX 20.7 µM | A498 23.8 µM | DU-145 19.3 µM | CAKI-1 15.4 µM | SN12C 18.8 µM | MDA-MB-231 16.3 µM | U-251 15 µM | SK-MEL-28 20.5 µM | Malme-3M 18.5 µM | COLO 205 15.9 µM | HCT-116 13.2 µM | UACC-62 12.1 µM | NCI-H226 19.2 µM | 786-0 15 µM | MDA-MB-435 15.2 µM | NCI/ADR-RES 19.3 µM | OVCAR-4 16.3 µM | CCRF-CEM 2.72 µM | K562 7.23 µM | SF-295 16.6 µM | BT-549 16.6 µM | NCI-H460 23.6 µM | HT-29 12.6 µM | OVCAR-5 15.2 µM | MOLT-4 5.73 µM | PC-3 14.9 µM | HOP-62 19.2 µM | LOX IMVI 12.9 µM | MDA-N 13.8 µM | SW-620 14 µM | OVCAR-8 20.7 µM | HCC 2998 15.8 µM | ACHN 13.6 µM | HOP-92 25.2 µM | SF-268 19.1 µM | KM12 17 µM

CC(=O)c1sc(=N)n(-c2c(C)cccc2C)c1C
inactive: Hs-578T > 100 µM | SNB-19 > 100 µM | NCI-H522 > 100 µM | M14 > 100 µM | SNB-75 > 100 µM | TK-10 > 100 µM | SK-MEL-5 > 100 µM | A549 > 100 µM | RXF 393 > 100 µM | T47D > 100 µM | HL-60 > 100 µM | UO-31 > 100 µM | SR > 100 µM | MCF7 > 100 µM | RPMI-8226 > 100 µM | SK-OV-3 > 100 µM | NCI-H23 > 100 µM | IGROV-1 > 100 µM | OVCAR-3 > 100 µM | EKVX > 100 µM | A498 > 100 µM | DU-145 > 100 µM | SN12C > 100 µM | MDA-MB-231 > 100 µM | SF-539 > 100 µM | U-251 > 100 µM | SK-MEL-2 > 100 µM | SK-MEL-28 > 100 µM | Malme-3M > 100 µM | COLO 205 > 100 µM | UACC-62 > 100 µM | NCI-H226 > 100 µM | 786-0 > 100 µM | MDA-MB-435 > 100 µM | NCI/ADR-RES > 100 µM | OVCAR-4 > 100 µM | CCRF-CEM > 100 µM | K562 > 100 µM | BT-549 > 100 µM | NCI-H460 > 100 µM | HT-29 > 100 µM | OVCAR-5 > 100 µM | MOLT-4 > 100 µM | PC-3 > 100 µM | HOP-62 > 100 µM | LOX IMVI > 100 µM | MDA-N > 100 µM | SW-620 > 100 µM | HCC 2998 > 100 µM | ACHN > 100 µM | SF-268 > 100 µM | KM12 > 100 µM
> 100 µM: HCT-15
